Experimental data published in patent publication US8691764B2, “Inhibitors of NF-κB activity” (The Research Foundation for the State University of New York, priority 2007, dated 2014).

Assays:
NF-κB = assay: EMSA of NF-κB binding to κB probe, nuclear extract of treated BxPC-3 cells; assay type: cell-based, human; conditions: BxPC-3 nuclear extract, 3 h
Protocol: The gel shift assays were carried out according to the manufacturer's protocol (Panomics). Nuclear proteins (10 μg) from each sample were mixed with 10 ng biotinylated p65 double-stranded oligonucleotide probes (5′-[…]-3′ and its complement) (SEQ ID NO:9) in the presence of 1 μg Poly(I/C) DNA. The mixture was incubated at room temperature for 30 min. The binding complex was then resolved using a 6% polyacrylamide/glycerol gel in 0.5% Tris-borate-EDTA, transferred onto a nylon membrane, and fixed on the membrane by UV cross-linking The biotin-labeled probe was detected with streptavidin-horseradish peroxidase. Co-immunoprecipitation was performed as follows: about 500 μg of cell extracts were incubated overnight with 5 μg of agarose-conjugated anti-p65 (Santa Cruz Biotechnology) or anti-annexin 1 antibody (Santa Cruz, Calif.). The precipitate was washed five times with washing buffer (Santa Cruz Biotechnology), dissolved in 2× Laemmli buffer, boiled, and separated by SDS-PAGE and detected by Western blot analysis using ECL™ (Amersham Biosciences) as described above. Control experiments were performed by using rabbit IgG for p65 and mouse IgG2b for annexin 1, respectively (Santa Cruz Biotechnology). […]

annexin 1 = assay: Induction of annexin 1 in HT-29 cells, Western blot; assay type: cell-based, human
Protocol: The human pancreatic cancer cell line, BxPC-3, or the colon cancer cell line HT-29, both from ATCC (Manassas, Va.) were maintained and grown in RPMI 1640 or McCoy's 5A medium (Cellgro) supplemented with 10% fetal bovine serum (HyClone) and 1% penicillin/streptomycin (Cellgro) in a humidified incubator at 37° C. and 5% CO2.
For the study of induction of annexin 1 by anti-inflammatory agents, the cells were incubated with either NO-ASA or Dex for 3 h. The cell fractions were obtained as described by Andrews and Faller (N. C. Andrews and D. V. Faller, Nucleic Acids Res. 19:2499 (1991)) with modification. Briefly, the cells were pelleted after treatment and washed three times with PBS. The cell pellets were resuspended in ice cold buffer A (10 mM HEPES, pH 7.9, 10 mM KCl, 1.5 mM MgCI2, 0.5 mM DTT, 0.5 mM PMSF) with protease inhibitor cocktail (Sigma) and incubated on ice for 15 min with occasional mixing by gently tapping the tube. The cell lysates were centrifuged up to 5000 rpm for three times. The supernatants were collected as cytoplasmic extracts. Nuclear pellets were washed with buffer A and resuspended in buffer C (20 mM HEPES, pH 7.9, 450 mM NaCl, 1.5 mM MgCI2, 0.2 mM EDTA, 0.5 mM DTT, 0.5 mM PMSF, 25% Glycerol) with protease inhibitor cocktail (Sigma) and incubated on ice for 30 min with occasional mixing to extract nuclear proteins. […]

Bcl-xL = assay: NF-κB dependent gene (Bcl-xL) expression in epithelial cells of treated mice; assay type: in vivo; conditions: wild-type and Min mice
Protocol: To assess whether these changes occur in vivo, the inventors studied isolated small intestine epithelial cells from Min mice and the corresponding wild type mice C57BL/6J (of which the Min mice are a congenic derivative) treated with NO-ASA 100 mg/kg or Dex 10 mg/kg daily for 7 days. Min (multiple intestinal neoplasia), a mutant allele of the murine APC (adenomatous polyposis coli) locus, encodes a nonsense mutation at codon 850. Heterozygous Min mutants spontaneously develop tumors in the intestine and represent a model of intestinal carcinogenesis (M. Lipkin et al., Ann. N.Y. Acad. Sci. 889:14-19 (1999); A. Moser, H. Pitot, W. Dove, Science 247:322-324 (1990)). The levels of annexin 1 were increased in both Min and wild-type mice treated with either NO-ASA or Dex (FIG. 7A and FIG. 8A). The induction of annexin 1 by NO-ASA or Dex was accompanied by the inhibition of NF-κB activity (FIGS. 7B and 8B).

pancreatic cancer = conditions: animal tumor model; cited from earlier work
HT-29 cells = assay: MTT cell growth assay, HT-29; assay type: cell-based, human; conditions: at 24 h; read-out: Inhibition of HT-29 cell growth IC50

nitric oxide-donating aspirin [NO-ASA]
binding of NF-κB to the DNA probe (EMSA) (NF-κB): inhibited the binding of NF-κB to the DNA probe in a concentration-dependent manner
binding of NF-κB to the DNA probe (EMSA) at 20 μM (NF-κB; 20 μM NO-ASA): substantial suppression of binding
expression of annexin 1 (annexin 1): induced
NF-κB dependent gene expression (Bcl-xL) (Bcl-xL): inhibited NF-κB dependent gene expression
prevention of pancreatic cancer (pancreatic cancer): almost completely prevents pancreatic cancer
IC50 (HT-29 cells): 18.8 µM
